Measurements: paper PMC4241505 (Nature communications, 2014)
Ends that are not written are not given here.

System: cathepsins B, H, and S
Settings: pH 5

Compound | Peptides detected on MALDI after digesting synthetic epitope with cathepsins
CC(C)C[C@H](NC(=O)[C@H](CCCCN)NC(=O)[C@H](CC(C)C)NC(=O)[C@@H](NC(=O)[C@H](CC(N)=O)NC(=O)[C@H](CCC(N)=O)NC(=O)[C@H](CCCCN)NC(=O)[C@@H](NC(=O)[C@H](Cc1ccc(O)cc1)NC(=O)[C@H](CCCCN)NC(=O)[C@@H]1CCCN1)C(C)C)[C@@H](C)O)C(=O)N[C@@H](C)C(=O)N[C@H](C(=O)O)[C@@H](C)O [HA(306–318)] | PKYVKQNTLK (m/z 1218 Da)
NRERRGIALDGKIKHE [hSA(291–306)] | NRERRGIALDGKIKHE (m/z 1892 Da) NRERRGIALDGKIK (m/z 1627 Da)
